Data set [1] relates to NRP-1 protein. Also on record: method as in PMID 19464192, PMID 25645959. The settings on record: previous studies; cited from earlier work.
Data set [2] has as its system NRP-1 recombinant chimeric protein. Put plainly: Competitive binding assay with biotinylated VEGF-165 on recombinant NRP-1. The settings on record: for Concentration needed to decrease the binding of b-VEGF-165 to NRP-1: only at high concentration; for IC50: in the presence of heparin, 2 h at room temperature, read-out: IC50 ± SD (displacement of 50% of b-VEGF-165). The source says:
(§1) We evaluated the binding capacity of compounds toward NRP-1 using two different techniques: (1) a competitive binding assay with biotinylated VEGF (b-VEGF-165), a natural ligand of NRP-1 immobilized on a microplate surface in the presence of heparin, which allowed calculating the IC50 (the concentration of compound that displaced 50% of b-VEGF-165), and (2) surface plasmon resonance (SPR), a sensitive, optical-based, label-free detection technology for the real-time monitoring of molecular interactions between injected analytes and ligands covalently attached to the surface of a sensor chip. This technique was used to calculate the KD. VEGF-165 was used as the positive control in these two techniques.
The binding of compounds for the NRP-1 protein was evaluated in terms of the half-maximal inhibitory concentration (IC50 values) through a competitive assay, as previously described. VEGF-165, the natural ligand of NRP-1, was used as the positive control. Briefly, the surfaces of Maxisorp microplates (Thermo Fisher Scientific, France) were coated with NRP-1 recombinant chimeric proteins (Bio-techne, France). The binding of compounds to NRP-1 was assessed using biotinylated VEGF-165 (b-VEGF-165) (AcroBioSystem, Interchim, France) in the presence of heparin (Bio-techne, France) in competition or not with various concentrations of compounds or unlabeled VEGF-165 (Bio-techne, France) as the positive control. After 2 h of incubation at room temperature, the plates were washed, and the amount of bound b-VEGF-165 was stained with streptavidin horseradish peroxidase conjugate (Bio-techne, France) and assayed. […] The results were expressed as the mean of the relative absorbance percentage to wells containing only blocking buffers of triplicate measurements. The affinities were estimated as the IC50 values (i.e., the concentration of compounds that displaced 50% of β-VEGF-165 binding) calculated using the one-site fit log-IC50 nonlinear analysis regression of GraphPad Prism 6 software (v 6.05, USA).

Data set [3] in a line: Photophysical properties (absorption and fluorescence) in water. In kind it is physicochemical. The settings on record: for Fluorescence quantum yield (φF): λex = 590 nm. Here is the method:
All reactions involving cyanine5 compounds were performed in the dark. Preparative reverse-phase high-performance liquid chromatography (HPLC) was performed on SPOT PREP Liquid Chromatography (ARMEN Instrument, Saint-Avé, France) with a Pursuit 5-C18 column (5 μm, 21.2 × 150 mm; Varian). Pure compounds obtained were analyzed accordingly by LC-MS on a Shimadzu LCMS-2020 monitored by a Diode Array Detector SPD-M20A (Shimadzu, Marne la Vallée, France) using a Pursuit 5-C18 column (4.6 × 150 mm; Varian) (Varian, Agilent Technologies, Santa Clara, CA, USA). Absorption spectra were recorded on a Perkin-Elmer Lambda EZ210 (Perkin-Elmer, Courtaboeuf, France) double-beam UV–visible spectrophotometer. Fluorescence spectra were recorded on a Fluorolog-3 spectrofluorometer FL3-222 (Horiba Jobin Yvon, Longjumeau, France) with a thermostated cell compartment (25 °C) using a 450-W Xenon lamp. The fluorescence quantum yield (φF) was determined using tetraphenyl porphyrin (TPP) solution in toluene as the fluorescence standard (φF = 0.11).

Data set [4] deals with MDA-MB-231 cells. The experiment in a line: Proliferation assay, real-time cell tracking (IncuCyte), MDA-MB-231. In kind it is cell-based. To be noted: for Doubling-time values (Time (h) ± SD): exponential phase. Here is the method: (§2) The proliferation of MDA-MB-231 and HUVEC cells were investigated using a label-free, noninvasive IncuCyte® S3 live-cell imaging system (Sartorius, Germany). Cells were plated as described for metabolic activity placed in an incubator (Binder) at 37 °C. Cells were photographed at 2-h intervals using a 20× objective over several days. […] Phase–object confluence was calculated at each time point based on the segmentation of high-definition phase-contrast images using IncuCyte S3 2018B software and expressed in percentages. Experiments were performed in triplicate.
(§3) Cell doubling time (DT) was calculated using the following Equation (1):(1) DT=Tend−TstartLn2/LnCend−LnCstart where Tstart/Tend are the times at the start/end of the exponential growth phase. Cstart/Cend are the percentage of confluence of the cells at the start/end of the exponential growth phase.

For data set [5], the target named is T1, recombinant rat NRP-1 protein (Rattus norvegicus, UniProt Q9QWJ9).
T1 construct: purchased Bio-techne (France)
Put plainly: Surface plasmon resonance (SPR) on immobilized recombinant NRP-1. The format is binding. To be noted: Figure S5, injected at 10 and 30 µM.
From the text: as §1
The equilibrium dissociation constant (KD) was evaluated using surface plasmon resonance, based on Gries et al.. All experiments were performed at 25 °C using the BIACORE T200 instrument (GE Healthcare Biacore, Uppsala, Sweden). Sensor surfaces and other Biacore consumables were purchased from GE Healthcare Biacore (USA). […]
They flowed at a rate of 30 µL/min for 300 s at 25 °C. […] The equilibrium response was recorded 5 s before the end of the compound injection (time window: 5 s). […] The KD value was determined by fitting the response (RU) versus analyte concentration (µM) curve to a simple 1:1 interaction model with the BiaEvaluation 3.2 software (GE Healthcare). […]

Data set [6] concerns HUVEC cells. The experiment in a line: Proliferation assay, real-time cell tracking (IncuCyte), HUVEC. The format is cell-based, human. To be noted: for Doubling-time values (Time (h) ± SD): exponential phase. Here is the method:
as §2, §3

Data set [7] concerns the target NRP-1. Also on record: method as in PMID 22372770. To be noted: read-out: KD previously found; cited from earlier work.
The format of data set [8] is physicochemical. To be noted: 2 h. Here is the method:
(§4) The stability of [^68Ga]Ga-NODAGA-K(Cy5)DKPPR was performed in various media, final formulated media, and plasma.
The final [^68Ga]Ga-NODAGA-K(Cy5)DKPPR was kept at room temperature and analyzed by radio-HPLC at the end of the synthesis and 1 h, 2 h, and 3 h after manufacturing.

The format of data set [9] is in vitro ADME, rodent. Here is the method: as §4
For the stability in plasma, 100 µL of [^68Ga]Ga-NODAGA-K(Cy5)DKPPR was added to 400 µL of fresh rodent plasma and was incubated at 37 °C for 0, 30, 60, and 120 min. After incubation, the solutions were treated with 400 µL of acetonitrile to precipitate the proteins, vortexed for 1 min, and then centrifuged (2500 rpm, 980 G, 5 min). The supernatant layer was analyzed by analytical radio-HPLC.

The test system of data set [10] is MDA-MB-231 tumor in the rat brain. Also on record: species or system nude rat. To be noted: in vivo. Here is the method: Breast cells from the MDA-MB-231 lineage (MDA-MB-231 (ATCC® HTB-26)) were induced by the vascular injection of 2.5 × 10^5 cells resuspended in a volume of 50 µL of RPMI medium (Merck, Molsheim, France) into the animal’s internal carotid.
PET recordings were obtained with a camera dedicated to small animal studies (Inveon, Siemens Preclinical Solutions, Knoxville, TN, USA). After rats anesthetized with isoflurane, 50 MBq of [^68Ga]Ga-NODAGA-K(Cy5)DKPPR (1st day) were injected as a bolus via a lateral tail vein. […]
The uptake values are expressed in SUV (Standardized Uptake Values), which are standardized fixation values relative to the animal’s weight and injected activity. Tissue time activity curves (TTACs) for tumors and various organ activities were determined by average SUVs in volumes of interest (VOI), which were drawn with dedicated software (Inveon Research Workplace 4.1, Siemens®, Knoxville, USA) on static images encompassing the whole acquisition. […]

Read-outs that look alike come from different tables or passages of the source. Where a SMILES comes first, the peptide text is derived from it. Primed or numbered codes have the meaning given here. Where no end group is shown, it is not given here. The star is where a group is joined. Cy5(nonsulfonated) = CN1C(=CC=CC=CC2=[N+](CCCCCC(=O)*)c3ccccc3C2(C)C)C(C)(C)c2ccccc21; NODAGA = O=C(O)CN1CCN(CC(=O)O)CCN(C(CCC(=O)*)C(=O)O)CC1; Cy5 = Cy5 fluorophore (fluorescent dye); NODAGA′ = chelator

As for “ATWLPPR [ligand peptide of NRP-1 from previous studies]”, the IC50 in data set [1] was 19 µM.
Consider “^natGa-NODAGA-K(Cy5)RPKPD ({NODAGA′}-K(Cy5)RPKPD; also: NODAGA complexed with natGa)”, for which the “Concentration needed to decrease the binding of b-VEGF-165 to NRP-1” value in [2] is listed as over 100 µM. In addition, the “Molar extinction coefficient (ε)” value in data set [3] is 39,870 L mol^−1 cm^−1. Besides, in data set [3], the “Fluorescence quantum yield (φF)” value is on record as 79%. The “Doubling-time values (Time (h) ± SD)” value in [4] (MDA MB 231, 1 µM) is given as 33 ± 1 h; in data set [4] (MDA MB 231, 10 µM) it was 33 ± 3 h; in data set [6] (1 µM), 27 ± 1 h; in data set [6] (10 µM), 28 ± 1 h. Also, the “SPR interaction toward NRP-1 (shape of curve)” value in data set [5] is listed as “weak affinity or a nonspecific interaction”.
As to H-KDKPPR-OH [KDKPPR], in data set [2], the IC50 amounted to 2 ± 1 µM. The “Doubling-time values (Time (h) ± SD)” value is 32 ± 1 h in [4] (MDA MB 231, 1 µM); 33 ± 2 h in [4] (MDA MB 231, 10 µM); 29 ± 2 h in [6] (1 µM); 30 ± 2 h in data set [6] (10 µM). Moreover, the Kd in [7] is 8.7 µM.
For the compound `CN1C(=CC=CC=CC2=[N+](CCCCCC(=O)NCCCC[C@H](NC(=O)CCC(C(=O)O)N3CCN(CC(=O)O)CCN(CC(=O)O)CC3)C(=O)N[C@@H](CC(=O)O)C(=O)N[C@@H](CCCCN)C(=O)N3CCC[C@H]3C(=O)N3CCC[C@H]3C(=O)N[C@@H](CCCNC(=N)N)C(=O)O)c3ccccc3C2(C)C)C(C)(C)c2ccccc21` (stereo partly shown) [^natGa-NODAGA-K(Cy5)DKPPR, metal not drawn] ({NODAGA}-K(Cy5(nonsulfonated))DKPPR-OH; C-terminus assumed), the IC50 in data set [2] turned out to be 0.1 µM. The “Molar extinction coefficient (ε)” value in data set [3] is listed as 44,552 L mol^−1 cm^−1. In addition, the “Fluorescence quantum yield (φF)” value in data set [3] is recorded as 61%. Further, the “Doubling-time values (Time (h) ± SD)” value came out at 31 ± 1 h in [4] (MDA MB 231, 1 µM); 32 ± 1 h in [4] (MDA MB 231, 10 µM); 30 ± 3 h in data set [6] (1 µM); 28 ± 2 h in data set [6] (10 µM). The “Proliferation of cells (confluence follow-up)” value was “did not modify” in [4] (MDA-MB-231, 0–10 µM) and “did not modify” in [6] (0–10 µM).
For the compound `C[N+]1=C(C=CC=CC=C2N(CCCCCC(=O)ON3C(=O)CCC3=O)c3ccccc3C2(C)C)C(C)(C)c2ccccc21.[Cl-]` [Cy5-NHS, Cyanine5-NHS ester, reference compound], in data set [3], the “Molar extinction coefficient (ε)” value is given as 209,000 L mol^−1 cm^−1 and the “Fluorescence quantum yield (φF)” value is listed as 27%.
As for “VEGF-165: natural ligand of NRP-1, positive control”, in [2] (used at 26 nM, positive control, data not shown), the “Shift of b-VEGF-165 binding to the receptor” value was “completely shifted”.
For the compound [^68Ga]Ga-NODAGA-K(Cy5)DKPPR, the “In vitro stability, remaining stable” value in [8] is over 95%; in data set [9] (plasma, 2 h), over 95%. In data set [9], the “In vitro stability (time)” value was over 120 min. In addition, the “Time to plateau of normalized tumor TTAC after injection” value in data set [10] is “roughly 10 min”.
In the case of KRPKPD, in [2], the IC50 came to 300 µM and the “Concentration needed to decrease the binding of b-VEGF-165 to NRP-1” value is over 100 µM. Moreover, the “SPR interaction toward NRP-1 (shape of curve)” value in [5] is reported as “weak affinity or a nonspecific interaction”.

The values above are taken from article PMC8659110, “Preliminary Study of New Gallium-68 Radiolabeled Peptide Targeting NRP-1 to Detect Brain Metastases by Positron Emission Tomography” (Molecules, 2021).
